Results: patent US6911306B1, “TMS1 compositions and methods of use” (Emory University, priority 1999, dated 2005)
Where a SMILES comes first, the peptide text is derived from it. The star is where a group is joined. Cbz = O=C(OCc1ccccc1)*; CH2F = FC*

Assays:
TMS1 transcript = test: RT-PCR analysis of TMS1 expression after demethylating agent treatment; type: cell-based, human; conditions: 0.5 μM for 3 days; ZR75-1, Hs578t and MDA MB231 cells
Description: Six μg total RNA was pretreated with DNAse I (Life Technologies) and reverse transcribed using random hexamer primers and MMLV-reverse transcriptase according to the manufacturers instructions (Life Technologies). One/30th of the reverse transcriptase reaction equivalent to 200 ng starting RNA was used directly in a PCR reaction. The PCR reaction conditions were: 67 mM Tris-HCl, pH 8.8, 16.6 mM NH4SO4, 6.7 μM EDTA, 10 mM β-mercaptoethanol, 4.7 mM MgCl2, 10% DMSO, 400 nM each primer in a 25 μl reaction. Hot start PCR was performed using an initial 5 minute incubation at 95° C. followed by the addition of 0.5 U Taq polymerase and 35 cycles of PCR (95° C., 30 s; 50-55° C., 60 s; 72° C., 60 s). Primers used for analysis of TMS1 were TGGGCCTGCAGGAGATG-3′ (SEQ ID NO:13) and 5′-ATTTGGTGGGATTGCCAG-3′ (SEQ ID NO:9) with an annealing temperature of 50° C. Primers used for the analysis for β-actin were 5′-[…]-3′ (SEQ ID NO:14) and 5′-[…]-3′ (SEQ ID NO:15) with an annealing temperature of 55° C. […]
(§1) If loss of TMS1 expression is directly related to methylation of the CpG island, then expression of TMS1 should be restored following treatment with a demethylating agent. […] Methylation of the TMS1 CpG island was analyzed by methylation specific PCR and expression of TMS1 was analyzed by RT-PCR with β-actin controls. […]

TMS1 CpG island = test: Methylation-specific PCR of the TMS1 CpG island after demethylating agent treatment; type: cell-based, human; conditions: 0.5 μM for 3 days; ZR75-1, Hs578t and MDA MB231 cells
Description: Bisulfite modification and methylation-specific PCR were performed as previously described. (Herman, J. G., et al., Proc. Natl. Acad. Sci. U.S.A. 93:9821-9826, 1996) Briefly, 2 μg genomic DNA was denatured by incubation at 37° C. in 0.2N NaOH for 10 min. then treated with 3M sodium metabisulfite and 0.5 M hydroquinone at 50° C. for 16 h. DNA was desalted using Wizard DNA Clean-Ups (Promega). Modification was completed by the addition of NaOH to a final concentration of 0.3M and DNA was recovered by ethanol precipitation. Approximately 50 ng bisulfite-modified DNA was amplified by PCR with the following reaction conditions: 67 mM Tris-HCl, pH 8.8, 16.6 mM NH4SO4, 6.7 μM EDTA, 10 mM β-mercaptoethanol, 6.7 mM MgCl2, 1 μM each primer in a 25 μl reaction. Hot start PCR was performed using an initial 5 minute incubation at 95° C. followed by the addition of 0.5 U Taq polymerase (Life Technologies) and 35 cycles of PCR (95° C., 30 s; 58° C., 30 s; 72° C., 30 s). […]
as §1

pIND1 control cells = test: Growth of pIND1 control cells; type: cell-based, human; conditions: empty-vector control cells
Description: (§2) Human embryonic kidney 293 cells and EcR-293 derivatives (MTMS22 and PIND1) were cultured in DMEM (Life Technologies, Inc. Grand Island, N.Y.) supplemented with 10% fetal bovine serum. MTMS22 and PIND1 cells were maintained in the presence of 400 μg/ml zeocin and 600 μg/ml G418. Transfections of 293 cells were carried out in 24-well dishes with 1×10^5 cells and 0.5 μg total DNA per well using the calcium phosphate method. As a transfection marker, a βgal expression vector (β-gal CMV) was included at a 1:4 ratio with the indicated cDNA constructs. In co-transfections with DN-caspase-8 or DN-caspase-9, 0.2 μg of pcDNA-TMS1 was transfected with 0.2 pg of pcDNA3.1 or DN-caspase-8 or -9 along with 0.1 μg of β-gal CMV as a transfection control.
An ecdysone-regulated expression system was used to create a 293 cell line that inducibly expresses TMS1. […] In addition, a clonal population of cells stably transfected with the empty expression vector was isolated as a control (PIND1). Upon addition of pon A to the MTMS22 cells, mycTMS1 was detectable by western blotting as early as 6 hours after treatment and continued to accumulate in the cells over 48 hours (FIG. 6A). […] By 96 hours, pon A-treated cells were declining in number, confirming cell death. As a biochemical marker for apoptosis, MTMS22 cells were examined for DNA fragmentation in the presence or absence of TMS1 expression. […]

MTMS22 cells [1] = test: MTMS22 cell proliferation with ecdysone-inducible TMS1 expression; type: cell-based, human
Description: The Ecdysone-Inducible Mammalian Expression System (Invitrogen, Carlsbad, Calif.) was used to create clones of 293 cells that inducibly express mycTMS1. The mycTMS1 cDNA was cloned into the HindIII/XhoI sites of the pIND expression vector (pIND-mycTMS1). EcR-293 cells (Invitrogen, Carlsbad, Calif.) containing the pVgRXR vector were transfected with pIND-mycTMS1 or pIND using Lipofectamine Reagent (Life Technologies, Grand Island, N.Y.). Cells were maintained in selection medium containing 600 μg/ml G418 for 3 weeks to isolate stably transfected colonies. Clonal populations transfected with pIND-mycTMS1 were then tested for inducible expression by western blot analysis after addition of 5 μM pon A.
as §2, with “In co-transfections with DN-caspase-8 or DN-caspase-9, 0.2 μg of pcDNA-TMS1 was transfected with 0.2 pg of pcDNA3.1 or DN-caspase-8 or -9 along with 0.1 μg of β-gal CMV as a transfection control.” left out

MTMS22 cells [2] = test: DNA fragmentation in MTMS22 cells; type: cell-based, human
Description: Where indicated, MTMS22 cells were treated with 5 μM pon A (Invitrogen) or 40 μM Z-VAD-fmk (Enzyme System Products, Livermore, Calif.). DNA was collected from 2×10^6 cells as previously described. (Burow, M. E., et al. Cancer Research. 58: 4940-4946, 1998) 5 μg of DNA from each sample was visualized by separation on a 2% agarose gel containing ethidium bromide.

293 cells = test: Fluorescence microscopy of TMS1 subcellular localization; type: cell-based, human; conditions: cells expressing TMS1 in the presence of Z-VAD
Description: Cells were fixed in 4% formaldehyde, permeabilized in 0.2% triton X-100 in PBS and blocked with 3% BSA/0.02% triton X-100 in PBS. Coverslips were incubated with myc antibody (9E10) (Santa Cruz Biotechnology, Santa Cruz, Calif.) at a 1:500 dilution, washed 4 times in PBS/0.02% triton X-100 and incubated with a secondary FITC antibody at a 1:2000 dilution. After 3 more washes, cells were stained with Hoechst 33258 dye to visualize nuclei, washed twice in PBS and mounted on slides. Cells were viewed at 400× or 1000× using the Olympus BX60 microscope. Digital images were captured using IP Lab Spectrum v.3.1 software (Scanalytics, Inc., Fairfax, Va.).

NF-κB = test: CAT assay for NF-κB activation; type: cell-based, human; conditions: 293 cells, NF-κB CAT reporter, increasing amounts of TMS1
Description: 293 cells plated at 60% confluence in 6 well dishes were transfected with 0.2 μg of the NF-κB CAT reporter construct (pJECAT2.6) and increasing amounts of pcDNA-mycTMS1 by the calcium phosphate method. 0.2 μg of β-gal CMV was included as a transfection control, and the total amount of DNA transfected was kept constant at 2 μg with pcDNA3.1. Cell lysates were collected 36 h after transfection in β-gal lysis buffer (Promega, Madison, Wis.) and assayed for β-gal activity using the β-Galactosidase Enzyme Assay System (Promega, Madison, Wis.) per manufacturer's instructions. CAT assays were performed basically as described. (Ausubel, F. M., et al. Curr. Prot. Mol. Biol., Vol. 2, pp. 9.7.5-9.7.6: John Wiley & Sons, Inc., 1997) In brief, cell lysates were incubated with [^14C]chloramphenicol and n-butyryl CoA. [^14C]-labeled acetylated chloramphenicol was then separated from the nonacetylated form by organic phase extraction, and radioactive counts were determined using a scintillation counter.

Hs578t cells = test: Colony formation assay; type: cell-based, human; conditions: stable expression, 14 days G418 selection, relative to vector control
Description: Breast cancer cells, including Hs57 8t, (3×10^5) were seeded into six well dishes and transfected with 1 μg pcDNA3.1 or the TMS1 expression constructs using 5 μl Lipofectamine reagent (Life Technologies). Twenty-four hours after transfection, cells were diluted 1:100-1:500 and seeded into 100 mm dishes in medium containing 400 μg/ml G418. After 14 days of selection, stable G418-resistant colonies were fixed and stained with 50% methanol, 0.25% crystal violet, and counted. The total number of colonies recovered per transfection cells was extrapolated from counting at least 300 G418^r colonies per experiment. The number of colonies recovered from cells transfected with pcDNA3.1 in each experiment was considered to be 100%. Three independent transfection experiments were performed.
Given the proapoptotic function of TMS1, the consequences of TMS1 silencing were determined by re-introducing TMS1 into breast cancer cells lacking endogenous TMS1 expression. Colony forming ability of TMS1 negative breast cancer cells stably transfected with TMS1 expression constructs was analyzed in the following manner. Hs578t cells were transfected with the pcDNA3.1 vector or the indicated TMS1 expression construct. Twenty-four hours after transfection, cells were plated at limiting dilution in G418 selection medium. […]

[3] = system: 293 human embryonic kidney cells; test: Morphological apoptosis assay in transiently transfected 293 cells; type: cell-based; conditions: 48 h; for apoptosis on ectopic expression: transient transfection of 293 cells
Description: 293 human embryonic kidney cells were plated on glass coverslips in 24 well dishes at 1×10^5 cells per well, and were transfected with 0.4 μg of pcDNA3.1 or the TMS1 expression constructs plus 0.1 μg β-galactosidase expression vector (pCMVβgal, Clonetech) using the calcium phosphate precipitation method. Where indicated, 40 μM zVADfmk (Enzyme System Product, Livermore, Calif.) was included during the recovery period. Forty-eight hours after transfection, coverslips were fixed in 4% paraformaldehyde and stained for β-galactosidase activity, using X-gal, and for nuclear morphology, using Hoecsht […] dye. Cells were visualized by phase contrast microscopy. At least 200 β-galactosidase positive cells from randomly selected fields were counted from each transfection. Apoptotic cells were distinguished based on morphologic features typical of adherent cells undergoing apoptosis, including becoming condensed, rounded and detached from the growth surface as described. (McCarthy, J. V. et al., J.Biol.Chem. 273:16968-16975, 1998). Each transfection experiment was repeated three times.
as §2
48 h after transfection, 293 cells were fixed on coverslips and stained for β-gal activity. Nuclei were stained using Hoechst 33258 dye (Sigma, St. Louis, Mo.). […]

[4] = MTMS22 cells with pon A, 40 μM Z-VAD

Q: Which results are given for `Nc1ncn([C@H]2C[C@H](O)[C@@H](CO)O2)c(=O)n1` [5-aza-2′-deoxycytidine]?
A: expression of TMS1 transcript (TMS1 transcript): re-expression-of TMS1 transcript; methylation of the TMS1 CpG island (TMS1 CpG island): partial demethylation

Q: Which results are given for `COC(=O)C[C@H](NC(=O)[C@H](C)NC(=O)[C@@H](NC(=O)OCc1ccccc1)C(C)C)C(=O)CF` [Z-VAD, Z-VAD-fmk] (Cbz-Val-Ala-Asp(OMe)-CH2F)?
A: effect on growth of pIND1 control cells (pIND1 control cells): Neither pon A or Z-VAD had any effect; effect on TMS1-induced cell death (MTMS22 cells [1]; [4]): blocked; effect on TMS1-induced DNA fragmentation (MTMS22 cells [2]; [4]): blocked; effect on formation of TMS1-containing spherical aggregates (293 cells): no effect

Q: With `CC(C)CC[C@@H](O)[C@](C)(O)[C@H]1CC[C@@]2(O)C3=CC(=O)[C@@H]4C[C@@H](O)[C@@H](O)C[C@]4(C)[C@H]3CC[C@]12C` [pon A] as the molecule, how does the “effect on growth of pIND1 control cells” value (pIND1 control cells) read?
A: Neither pon A or Z-VAD had any effect

Q: Which results are given for “TMS1: human TMS1 polypeptide (SEQ ID NO:3) expressed from the TMS1 cDNA in pcDNA3.1”?
A: NF-κB-dependent transcriptional activation (NF-κB): no effect; inhibition of colony formation (Hs578t cells): about 70%; increase in cell death ([3]; 293 cells, ectopic expression): 6 fold; apoptosis on ectopic expression [3]: induced apoptosis; cell growth on induced TMS1 expression (MTMS22 cells [1]; MTMS22 cells, pon A, by 48 hours after induction): cell growth was significantly inhibited; DNA laddering on induced TMS1 expression (MTMS22 cells [2]; MTMS22 cells, pon A, as early as 16 hours, most evident at 48 hours): DNA laddering was observed

Q: Which “apoptosis on ectopic expression” value [3] does the source give for “mycTMS1: TMS1 with a myc-epitope tag fused to amino acid 2” here?
A: induced apoptosis
